Data published in article PMC7271948, “A baculoviral system for the production of human β-glucocerebrosidase enables atomic resolution analysis” (Acta Crystallographica. Section D, Structural Biology, 2020).

Columns and labels:
[1] = target: T1, β-glucocerebrosidase (GBA) (Homo sapiens, UniProt P04062); assay: X-ray crystal structure at […] Å, crystals soaked with 2F-DNPGlc; assay type: binding
T1 construct: gene GBA1
T1 sequence (P04062 40-536): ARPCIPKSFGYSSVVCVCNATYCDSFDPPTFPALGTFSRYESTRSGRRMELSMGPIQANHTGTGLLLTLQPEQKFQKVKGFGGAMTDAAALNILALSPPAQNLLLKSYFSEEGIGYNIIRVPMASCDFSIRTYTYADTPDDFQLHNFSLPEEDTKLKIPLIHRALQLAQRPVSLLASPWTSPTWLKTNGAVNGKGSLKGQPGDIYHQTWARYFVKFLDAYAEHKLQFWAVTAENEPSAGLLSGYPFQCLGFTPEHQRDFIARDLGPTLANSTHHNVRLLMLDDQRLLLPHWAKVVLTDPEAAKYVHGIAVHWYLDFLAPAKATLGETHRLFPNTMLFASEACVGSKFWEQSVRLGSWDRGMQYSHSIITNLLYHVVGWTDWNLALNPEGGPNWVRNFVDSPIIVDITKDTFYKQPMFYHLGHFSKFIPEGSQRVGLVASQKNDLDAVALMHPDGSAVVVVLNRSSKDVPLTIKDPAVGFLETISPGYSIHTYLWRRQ

[2] = target: T1, β-glucocerebrosidase (GBA); assay: X-ray crystal structure at […] Å; IC50 against 4-MU-Glc hydrolysis at pH […]; assay type: biochemical

IC50 [2] | Compound | X-ray crystal structure at 1.41 Å, crystals soaked with 2F-DNPGlc [1]
– | O=[N+]([O-])c1ccc(O[C@@H]2O[C@H](CO)[C@@H](O)[C@H](O)[C@H]2F)c([N+](=O)[O-])c1 [2F-DNPGlc, 2,4-dinitrophenyl-2-deoxy-2-fluoro-β-D-glucopyranoside] | showing unambiguous electron density for covalent binding of the 2-deoxy-2-fluoroglucose moiety to the catalytic nucleophile
4.31 ± 0.42 mM | OCC(CO)(CO)NCCCNC(CO)(CO)CO [BTP, bis-Tris propane] | –
